Measurements as given in patent US20100041089A1, “IMPROVED METHOD FOR DETECTING CHEMICAL […]” (priority 2006, published 2010).

Test system: yeast genes (expressed mRNA)
Experiment: DNA chip measurement of expressed mRNA of yeast genes after culture with a toxic chemical substance
Format: cell-based, Saccharomyces cerevisiae S288C
Conditions: for level of expressed mRNA in the presence of chemical substance / level in the absence of chemical substance: cultured two hours with the chemical substance; for The level of expressed mRNA in the presence of chemical substance/The level of expressed mRNA in the absence of chemical substance: cultured two hours with substance
Description: Yeast (Saccharomyces cerevisiae S288C (a SUC2mal mel gap2 CUP1)) were cultured at 25° C. on YPD medium (yeast extract 1%, polypeptone 2%, glucose 2%). One of toxic chemical substances was added to the cell at logarithmic growth phase, and the cell was further cultured for two hours. Cell was cultured without any chemical substance in the same condition, and was used as a control. Concentrations of the chemical substances were defined to inhibit the growth of the yeast but not lead to death.
After the completion of cultivation, the culture was centrifuged to collect the cells. To the cells, sodium acetate buffer (50 mM sodium acetate, 10 mM EDTA, 1% SDS) was added, and the mixture was shaken at 65° C. for five minutes, followed by returning to room temperature, and obtaining the supernatant, which procedure was repeated two times. To the supernatant, ½ amount of a solution of phenol/chloroform (1:1) was added, and the mixture was centrifuged to give a supernatant, an equal amount of chloroform was added, and the mixture was centrifuged to give a supernatant. To the supernatant, an equal amount of isopropanol containing 0.3 M sodium acetate was added, and the mixture was allowed to stand at room temperature for 30 minutes, after which the mixture was centrifuged to give sediment of the whole RNAs. Seventy % ethanol was added to the sediment, and the mixture was again centrifuged to give sediment, which was then dried and dissolved in water. mRNA was isolated from the whole RNAs as followings. In view of the fact that a poly A chain is attached to the 3′ terminus of mRNA, a polynucleotide having a poly T structure which was immobilized on the surface of latex beads was used to trap the mRNA, and then the mRNA was washed and eluted with spine column (Oligotex-dT30<Super>mRNA Purification Kit, Takara). Reverse transcription of the mRNA was conducted with a reverse transcriptase (Super Script II Reverse Transcriptase; catalogue No. 18064-014, GibcoBRL) using fluorescence-labeled nucleotides to give cDNAs that were introduced with Cy3-dUTP or Cy5-dUTP during the reverse transcription.
The labeled cDNAs were dissolved in TE buffer (10 mM Tris-HCl/1 mM EDTA, pH 8.0), and the solution was dropped on the DNA chip containing the whole genes of yeast (DNA Chip Research Inc. Japan) so that the cDNAs were hybridized on the DNA chip at 65° C. for over 12 hours. The fluoresces intensity of the DNA chip was read with a scanner, and the ratio relative to the fluorescence intensity resulting from the absence of chemical substance was estimated as the following, which is shown in Tables 1 to 9.
In the Tables, “Intensity” indicated in the rightmost column is a value of the level of expressed mRNA of each gene in control cells as divided by the average level of the expressions of the whole genes. A gene of which mRNA level is lower in control, and is higher in cases of addition of chemical substance, is especially useful in the detection of toxic substances.
Here, when a ratio of an amount of mRNA expressed in the presence of the chemical substance to an amount of mRNA expressed in the absence of the chemical substance is two or more, then it is considered significant.

[Cl][Hg][Cl] [(3), HgCl2]
level of expressed mRNA in the presence of chemical substance / level in the absence of chemical substance (yeast gene YNL058C): 2.1
level of expressed mRNA in the presence of chemical substance / level in the absence of chemical substance (yeast gene YNL063W): 0.9
The level of expressed mRNA in the presence of chemical substance/The level of expressed mRNA in the absence of chemical substance (yeast gene YNL074C): 1.8
The level of expressed mRNA in the presence of chemical substance/The level of expressed mRNA in the absence of chemical substance (yeast gene YNL092W): 2.4
The level of expressed mRNA in the presence of chemical substance/The level of expressed mRNA in the absence of chemical substance (yeast gene YNL115C): 1.6
The level of expressed mRNA in the presence of chemical substance/The level of expressed mRNA in the absence of chemical substance (yeast gene YNL156C): 0.9
level of expressed mRNA in the presence of chemical substance / level in the absence of chemical substance (yeast gene YNL176C): 2.9
level of expressed mRNA in the presence of chemical substance / level in the absence of chemical substance (yeast gene YNL194C): 2.0
level of expressed mRNA in the presence of chemical substance / level in the absence of chemical substance (yeast gene YNL200C): 3.6
The level of expressed mRNA in the presence of chemical substance/The level of expressed mRNA in the absence of chemical substance (yeast gene YNL234W): 0.6
level of expressed mRNA in the presence of chemical substance / level in the absence of chemical substance (yeast gene YNL253W): 0.6
level of expressed mRNA in the presence of chemical substance / level in the absence of chemical substance (yeast gene YNL276C): 1.9
The level of expressed mRNA in the presence of chemical substance/The level of expressed mRNA in the absence of chemical substance (yeast gene YNL281W): 2.0
The level of expressed mRNA in the presence of chemical substance/The level of expressed mRNA in the absence of chemical substance (yeast gene YNL305C): 2.7
level of expressed mRNA in the presence of chemical substance / level in the absence of chemical substance (yeast gene YNR051C): 1.1
The level of expressed mRNA in the presence of chemical substance/The level of expressed mRNA in the absence of chemical substance (yeast gene YNR068C): 2.3
level of expressed mRNA in the presence of chemical substance / level in the absence of chemical substance (yeast gene YOL026C): 0.7
The level of expressed mRNA in the presence of chemical substance/The level of expressed mRNA in the absence of chemical substance (yeast gene YOL032W): 2.0
The level of expressed mRNA in the presence of chemical substance/The level of expressed mRNA in the absence of chemical substance (yeast gene YOL036W): 1.3
The level of expressed mRNA in the presence of chemical substance/The level of expressed mRNA in the absence of chemical substance (yeast gene YOL047C): 1.1
The level of expressed mRNA in the presence of chemical substance/The level of expressed mRNA in the absence of chemical substance (yeast gene YOL071W): 1.7
The level of expressed mRNA in the presence of chemical substance/The level of expressed mRNA in the absence of chemical substance (yeast gene YOL082W): 1.6
The level of expressed mRNA in the presence of chemical substance/The level of expressed mRNA in the absence of chemical substance (yeast gene YOL083W): 1.2
The level of expressed mRNA in the presence of chemical substance/The level of expressed mRNA in the absence of chemical substance (yeast gene YOL117W): 0.5
The level of expressed mRNA in the presence of chemical substance/The level of expressed mRNA in the absence of chemical substance (yeast gene YOL131W): 0.6
The level of expressed mRNA in the presence of chemical substance/The level of expressed mRNA in the absence of chemical substance (yeast gene YOL150C): 9.9
The level of expressed mRNA in the presence of chemical substance/The level of expressed mRNA in the absence of chemical substance (yeast gene YOL162W): 1.7
The level of expressed mRNA in the presence of chemical substance/The level of expressed mRNA in the absence of chemical substance (yeast gene YOR019W): 0.8
level of expressed mRNA in the presence of chemical substance / level in the absence of chemical substance (yeast gene YOR022C): 1.1
level of expressed mRNA in the presence of chemical substance / level in the absence of chemical substance (yeast gene YOR087W): 1.8
level of expressed mRNA in the presence of chemical substance / level in the absence of chemical substance (yeast gene YOR138C): 0.7
The level of expressed mRNA in the presence of chemical substance/The level of expressed mRNA in the absence of chemical substance (yeast gene YOR197W): 1.1
level of expressed mRNA in the presence of chemical substance / level in the absence of chemical substance (yeast gene YOR253W): 1.0
level of expressed mRNA in the presence of chemical substance / level in the absence of chemical substance (yeast gene YOR267C): 1.0
level of expressed mRNA in the presence of chemical substance / level in the absence of chemical substance (yeast gene YOR325W): 1.5
level of expressed mRNA in the presence of chemical substance / level in the absence of chemical substance (yeast gene YPL005W): 1.0
The level of expressed mRNA in the presence of chemical substance/The level of expressed mRNA in the absence of chemical substance (yeast gene YPL087W): 3.0
level of expressed mRNA in the presence of chemical substance / level in the absence of chemical substance (yeast gene YPL150W): 1.6
level of expressed mRNA in the presence of chemical substance / level in the absence of chemical substance (yeast gene YPL152W): 1.4
level of expressed mRNA in the presence of chemical substance / level in the absence of chemical substance (yeast gene YPL168W): 0.5
level of expressed mRNA in the presence of chemical substance / level in the absence of chemical substance (yeast gene YPL180W): 0.7
level of expressed mRNA in the presence of chemical substance / level in the absence of chemical substance (yeast gene YPL188W): 2.9
The level of expressed mRNA in the presence of chemical substance/The level of expressed mRNA in the absence of chemical substance (yeast gene YPL196W): 1.3
The level of expressed mRNA in the presence of chemical substance/The level of expressed mRNA in the absence of chemical substance (yeast gene YPL206C): 1.4
level of expressed mRNA in the presence of chemical substance / level in the absence of chemical substance (yeast gene YPL221W): 1.0
The level of expressed mRNA in the presence of chemical substance/The level of expressed mRNA in the absence of chemical substance (yeast gene YPL222W): 0.8
level of expressed mRNA in the presence of chemical substance / level in the absence of chemical substance (yeast gene YPL225W): 1.0
The level of expressed mRNA in the presence of chemical substance/The level of expressed mRNA in the absence of chemical substance (yeast gene YPR023C): 1.2
level of expressed mRNA in the presence of chemical substance / level in the absence of chemical substance (yeast gene YPR049C): 1.5
level of expressed mRNA in the presence of chemical substance / level in the absence of chemical substance (yeast gene YPR146C): 1.3
level of expressed mRNA in the presence of chemical substance / level in the absence of chemical substance (yeast gene YPR148C): 0.8
The level of expressed mRNA in the presence of chemical substance/The level of expressed mRNA in the absence of chemical substance (yeast gene YPR151C): 1.5
level of expressed mRNA in the presence of chemical substance / level in the absence of chemical substance (yeast gene YPR172W): 2.2
